Paper PMC8950151, “Synthesis and Evaluation of the Antifungal and Toxicological Activity of Nitrofuran Derivatives” (Pharmaceutics, 2022)
Values after ≈ are worked out from the molar mass of the structure shown. Read-outs that look alike come from different tables or passages of the source.

Key:
[1] = test system: Candida albicans (ATCC 90028); assay: Susceptibility test (CLSI M27-A3 broth microdilution, resazurin readout), MIC90; assay type: cell-based; settings: ATCC90028, C. albicans, 24 h, 37 °C
[2] = test system: C. krusei (ATCC 6258); assay: as above; assay type: cell-based, Candida krusei; settings: Pichia kudriavzevii
[3] = test system: C. glabrata (ATCC 90030); assay: as above; assay type: cell-based, Candida glabrata; settings: Nakaseomyces glabratus, ATCC90030, 24 h, 37 °C
[4] = test system: Cryptococcus neoformans (H99/ATCC 208821); assay: as above; assay type: cell-based
[5] = test system: Histoplasma capsulatum (G217-B/ATCC 26032); assay: microbe, parasite or virus in culture; assay type: cell-based; settings: ATCC26032, 144 h
[6] = test system: T. rubrum (ATCC 28289); assay: Susceptibility assay for dermatophytes (CLSI M38-A2, resazurin), MIC90; assay type: cell-based; settings: Trichophyton rubrum, ATCC28289, 96 h, 35 °C
[7] = test system: Trichophyton mentagrophytes (ATCC 11481); assay: as above; assay type: cell-based; settings: Trichophyton mentagrophytes, ATCC11481, 96 h, T. mentagrophytes, 35 °C, read-out: MIC90
[8] = test system: Candida albicans (ATCC 90028); assay: Minimum fungicidal concentration (MFC); assay type: cell-based; settings: ATCC90028, C. albicans
[9] = test system: C. krusei (ATCC 6258); assay: Minimum fungicidal concentration (MFC); assay type: cell-based, Candida krusei; settings: Pichia kudriavzevii, ATCC6258
[10] = test system: C. glabrata (ATCC 90030); assay: Minimum fungicidal concentration (MFC); assay type: cell-based, Candida glabrata; settings: Nakaseomyces glabratus, ATCC90030
[11] = test system: Cryptococcus neoformans (H99/ATCC 208821); assay: Minimum fungicidal concentration (MFC); assay type: cell-based; settings: ATCC208821, C. neoformans
[12] = test system: Histoplasma capsulatum (G217-B/ATCC 26032); assay: microbe, parasite or virus in culture; assay type: cell-based; settings: ATCC26032
[13] = test system: Paracoccidioides brasiliensis (Pb 18); assay: microbe, parasite or virus in culture; assay type: cell-based; settings: Paracoccidioides brasiliensis
[14] = test system: T. rubrum (ATCC 28289); assay: Minimum fungicidal concentration (MFC); assay type: cell-based, Trichophyton rubrum; settings: Trichophyton rubrum, ATCC28289
[15] = test system: Trichophyton mentagrophytes (ATCC 11481); assay: Minimum fungicidal concentration (MFC); assay type: cell-based; settings: T. mentagrophytes; for MFC: Trichophyton mentagrophytes, ATCC11481
[16] = test system: A549 (ATCC CCL-185) lung epithelial cell line; assay: Cytotoxicity assay in monolayer by resazurin colorimetric method; assay type: cell-based; settings: Homo sapiens, A549 cells, 72 h
[17] = in vitro; settings: human

SMILES | MIC90 [1] [µg/mL] | MIC90 ([2]; ATCC6258, 24 h) [µg/mL] | MIC90 [3] [µg/mL] | MIC90 ([4]; ATCC208821, 48 h) [µg/mL] | MIC90 [5] [µg/mL] | MIC90 [6] [µg/mL] | MIC90 [7] [µg/mL] | MFC [8] [µg/mL] | MFC [9] [µg/mL] | MFC ([10]; C. glabrata, read-out: MFC) [µg/mL] | MFC [11] [µg/mL] | MFC [12] [µg/mL] | MFC [13] [µg/mL] | MFC [14] [µg/mL] | MFC [15] [µg/mL] | IC50 [16] [µg/mL] | IC50 [17] [µg/mL] | other results
O=C(NCCc1c[nH]c2ccccc12)c1ccc([N+](=O)[O-])o1 [Compound 7] | 250 (≈ 835 µM) | 250 (≈ 835 µM) | > 250 | 62.5 (≈ 209 µM) | 0.98 (≈ 3.27 µM) | 125 (≈ 418 µM) | 125 (≈ 418 µM) | > 250 | > 250 | > 250 | 62.5 (≈ 209 µM) | 0.98 (≈ 3.27 µM) | 1.95 (≈ 6.52 µM) | > 250 | > 250 | 8.58 (≈ 28.7 µM) | 71.2 (≈ 238 µM) | 
O=C(/C=C/c1ccc([N+](=O)[O-])o1)c1ccccc1 [Compound 8] | 7.8 (≈ 32.1 µM) | 250 (≈ 1030 µM) | 7.81 (≈ 32.1 µM) | 31.2 (≈ 128 µM) | 15.6 (≈ 64.2 µM) | 0.98 (≈ 4.03 µM) | 0.98 (≈ 4.03 µM) | > 250 | > 250 | > 250 | 31.2 (≈ 128 µM) | 15.6 (≈ 64.2 µM) | 1.95 (≈ 8.02 µM) | 1.95 (≈ 8.02 µM) | 1.95 (≈ 8.02 µM) | 53.8 (≈ 221 µM) | 6.66 (≈ 27.4 µM) | 
O=C(NCc1ccccn1)c1ccc([N+](=O)[O-])o1 [Compound 4] | 250 (≈ 1010 µM) | 250 (≈ 1010 µM) | > 250 | 31.2 (≈ 126 µM) | 3.9 (≈ 15.8 µM) | 125 (≈ 506 µM) | 31.2 (≈ 126 µM) | > 250 | 250 (≈ 1010 µM) | > 250 | 62.5 (≈ 253 µM) | 3.9 (≈ 15.8 µM) | 7.81 (≈ 31.6 µM) | 125 (≈ 506 µM) | 250 (≈ 1010 µM) | 29.5 (≈ 119 µM) | 135 (≈ 547 µM) | fungistatic / fungicidal profile ([15]; MFC versus MIC90): fungistatic profile
CSc1ccc(C(=O)/C=C/c2ccc([N+](=O)[O-])o2)cc1 [Compound 13] | > 250 | > 250 | > 250 | ≥ 250 | 125 (≈ 432 µM) | 0.98 (≈ 3.39 µM) | 0.98 (≈ 3.39 µM) | > 250 | > 250 | > 250 | ≥ 250 | 125 (≈ 432 µM) | 0.98 (≈ 3.39 µM) | 1.95 (≈ 6.74 µM) | 0.98 (≈ 3.39 µM) | 17.9 (≈ 61.9 µM) | 4.15 (≈ 14.3 µM) | 
O=C(/C=C/c1ccc([N+](=O)[O-])o1)c1ccc(-n2ccnc2)cc1 [Compound 14] | 15.6 (≈ 50.4 µM) | 15.6 (≈ 50.4 µM) | 7.81 (≈ 25.3 µM) | 3.9 (≈ 12.6 µM) | 7.81 (≈ 25.3 µM) | 1.95 (≈ 6.3 µM) | 1.95 (≈ 6.3 µM) | 62.5 (≈ 202 µM) | 31.2 (≈ 101 µM) |  | 3.9 (≈ 12.6 µM) | 7.81 (≈ 25.3 µM) | 1.95 (≈ 6.3 µM) | 3.9 (≈ 12.6 µM) | 1.95 (≈ 6.3 µM) | 33.4 (≈ 108 µM) | 26.8 (≈ 86.7 µM) | MFC [10]: 7.81 µg/mL (≈ 25.3 µM)
O=C(/C=C/c1ccc([N+](=O)[O-])o1)c1ccc(F)cc1 [Compound 9] | 15.6 (≈ 59.8 µM) | 250 (≈ 957 µM) | 31.2 (≈ 120 µM) | 7.81 (≈ 29.9 µM) | 3.9 (≈ 14.9 µM) | 0.98 (≈ 3.75 µM) | 1.95 (≈ 7.47 µM) | 31.2 (≈ 120 µM) | > 250 | > 250 | 15.6 (≈ 59.8 µM) | 3.9 (≈ 14.9 µM) | 1.95 (≈ 7.47 µM) | 1.95 (≈ 7.47 µM) | 1.95 (≈ 7.47 µM) | 23.4 (≈ 89.6 µM) | 47.2 (≈ 181 µM) | 
CN(C)CCCNC(=O)c1ccc([N+](=O)[O-])o1 [Compound 6] | > 250 | > 250 | > 250 | 250 (≈ 1040 µM) | > 250 | > 250 | > 250 | > 250 | > 250 | > 250 | 250 (≈ 1040 µM) | > 250 | 31.2 (≈ 130 µM) | > 250 | > 250 | 13.2 (≈ 54.8 µM) | 15.6 (≈ 64.7 µM) | 
C[C@@H]1[C@H](O)[C@@H](C)/C=C/C=C/C=C/C=C/C=C/C=C/C=C/[C@H](O[C@@H]2O[C@H](C)[C@@H](O)[C@H](N)[C@@H]2O)C[C@@H]2O[C@](O)(C[C@@H](O)C[C@@H](O)[C@H](O)CC[C@@H](O)C[C@@H](O)CC(=O)O[C@H]1C)C[C@H](O)[C@H]2C(=O)O [AmB, amphotericin B, reference compound] |  |  |  |  | 0.03 (≈ 0.0325 µM) |  |  |  |  |  |  |  |  |  |  |  |  | MIC90 ([2]; ATCC6258, C. krusei, 24 h, 37 °C, read-out: MIC90): 1 µg/mL (≈ 1.08 µM); MIC90 ([4]; ATCC208821, C. neoformans, 48 h, 37 °C, read-out: MIC90): 0.06 µg/mL (≈ 0.0649 µM)
